Columns and labels:
[1] = system: mouse liver cancer HAC cell line; assay: Enhancement of effectiveness of CP, mouse liver cancer HAC ascites model; assay type: in vivo, Kunming mice; conditions: CP 50 mg/kg i.p. only (positive control)
Procedure: Q-can oral liquid; mouse liver cancer HAC cell line; male Kunming mice weighing 20–25 g; commercial cyclophosphamide (CP).
Forty mice were randomly divided into 5 groups. In three test groups, 36%, 60% and 100% Q-can oral liquids (diluted with water) were given, respectively, while water was given in both control groups. On the 8th day, 0.2 ml HAC cancer cell suspensions (10^7/ml) were injected into the abdominal cavities of each mouse under aseptic condition. On the 1st, 3rd and 5th days after injection. CP (50 mg/kg) was injected i.p. into the mice in all test groups and positive control group. From the 9th day after injection, normal feeding was resumed as before the test. Date of death of each mouse was recorded, and the average life span and the rate of increase in life span were calculated. The rate of increase in life span (ILS %) is defined as following: […]

Lewis mouse lung tumor = system: Lewis mouse lung tumor
Procedure: Concentrated Q-can oral liquid (containing specific branched-chain fatty acids 3.6 mg/ml); Female F1 mice (C57/B1 and DBA/2) weighing 18–22 g; Lewis mouse lung tumor.
The mice of the test group were administrated with concentrated Q-can oral liquid at a daily dose of 36 mg specific branched-chain fatty acids per kg weight for 10 days before transplantation of Lewis mouse lung tumor. All the mice were transplanted subcutaneously in the subaxillary region with a piece of Lewis tumor of approximately 2 mm in diameter. The treatments of intraperitoneal injection of chemotherapy drug Cytoxan (CTX) in 30 mg/kg were given once a day after transplantation over an 8 day period for the positive control group. The treatments for the normal control group were daily injection of normal saline for 8 days. The administration of concentrated Q-can oral liquid for the test group was initiated 10 days before tumor transplantation and continued for another 8 days. Finally all the animals were sacrificed by spinal elongation. Tumors were excised and body and tumor weights were recorded.

[2] = system: Human gastric adenocarcinoma SGC-7901 xenograft; assay: Human gastric adenocarcinoma SGC-7901 xenografted into nude mice; assay type: in vivo, Balb/c-nu/nu athymia mice; conditions: MMC 2.0 mg/kg i.p. Qd × 14
Procedure: Female Balb/c-nu/nu athymia mice, 6 weeks old, weighing 18–22 g, housed in specific pathogen free (SPF) condition throughout the course of experiment; concentrated Q-can oral liquid contains 3.6 mg/ml specific branched-chain fatty acids; the drug used for positive control mitomycin C (MMC) was commercially available from Kyowa Hakko Kogyo Co., Ltd., Japan.
Human gastric adenocarcinoma SGC-7901 xenograft was established and maintained. For the experiment, the xenograft fragments of diameter of about 2 mm were inoculated subcutaneously into the right submaxillary regions of nude mice. The animals were randomly divided into five groups five days after inoculation. […] groups, respectively, while concentrated Q-can oral liquid was given in test groups once a day p.o., starting on the same day, at daily doses of 18, 36 and 72 mg branched-chain fatty acids per kg weight, respectively, for 14 days. Experiment was terminated 20 days post-implantation, and mice were sacrificed by spinal elongation. Tumors were removed and the weights of treated versus control tumors were compared. Inhibition rate was calculated. The experiment was repeated once.

[3] = system: Human leukemia cell line K562; assay: MTT assay, inhibition of cell growth; assay type: cell-based; conditions: Homo sapiens, K562; 30 μg/ml; 24 hours; dissolved with NaOH solution, pH 7.5; read-out: Inhibitory rate (%) on K562 cell growth
Procedure: MTT assay was performed to test the cytotoxicity. The K562 and SGC7901 cells were maintained in exponential growth in RPMI 1640 medium supplemented with 15% heat-inactivated newborn calf serum. The cells were plated at a density of 2×10^4 cells/100 μl medium/well into 96-well plate with medium containing samples in five final concentrations (7.5, 15, 30, 60 and 90 μg/ml) for iso-C15 (either synthesized or extracted) and one final concentration (30 μg/ml) for the others. The media in control wells contained no samples. The cells were incubated at 37° C. in a highly humidified incubator under 5% CO2 atmosphere for 24 hours. The supernatant was removed by fast inversion of the plate. 20 μl of 5 mg/ml MTT solution were added into each well. Incubation was continued for 4 hours. DMSO 100 μl/well was added and the plate was vibrated for 10 minutes. A570nm was read at the Immunoreader BioTek EL311S.
The inhibition rate (%)=1−(mean A570nm in test wells/mean A570nm in control wells)

[4] = system: SNU-423 human hepatocellular carcinoma cells; assay: Apoptosis morphology, light microscope; assay type: cell-based; conditions: 60 μg/ml, 24 hours
Procedure: (§1) Human cancer cell lines DU-145 (prostate cancer), K562 (leukemia), HCT116 (colon cancer), H1688 (lung cancer), SUN423 (hepatocarcinoma), MCF7 (breast cancer), CRL-1687 (pancreatic cancer), and SUN-1 (gastric cancer) were obtained from American Type Culture Collection (ATCC). 30 ml blood was collected from a health person and normal peripheral mononuclear cells were separated by Ficoll separation solution (Sigma). All cells were maintained in RPMI 1640, DMEM, or McCoy medium supplemented with 10% FCS, […] streptomycin and 100 u/ml penicillin. Normal human peripheral mononuclear cells, K562 and SUN-1 were suspended cells. After spinning at 1,500 RPM for 5 min, supernatants were discharged and cells were resuspended and expended in fresh medium. The other tumor cell lines were adherent cells and were dispersed with 0.05% trypsin/0.01% EDTA (Irvine Scientific, CA) for expansion. Cells were seeded in T75 flasks at 2×10^6 cells/flask in culture medium supplemented with 10% fetal bovine serum and incubated overnight at 37° C. with 5% CO2. […] Cells were then prepared for flow cytometry analysis, in situ cell death detection, DNA fragmentation and Western blot assay followed the preparation methods for each assay. Cell pellets treated for 2 and 4 hr with either iso-C15 or control were also stored at −70° C. for future studies of gene regulation. […]

[5] = system: SNU-1 human gastric carcinoma cell lines; assay: Apoptosis morphology, H&E, light microscope; assay type: cell-based; conditions: 60 μg/ml, 8 hours
Procedure: as §1

[6] = system: MCF-7 human breast adenocarcinoma cells; assay: Flow cytometry annexin V / PI apoptosis detection; assay type: cell-based; conditions: 60 μg/ml
Procedure: Human cancer cell lines DU-145 (prostate cancer), K562 (leukemia), HCT116 (colon cancer), H1688 (lung cancer), SUN423 (hepatocarcinoma), MCF7 (breast cancer), CRL-1687 (pancreatic cancer), and SUN-1 (gastric cancer) were obtained from American Type Culture Collection (ATCC). 30 ml blood was collected from a health person and normal peripheral mononuclear cells were separated by Ficoll separation solution (Sigma). All cells were maintained in RPMI 1640, DMEM, or McCoy medium supplemented with 10% FCS, […] streptomycin and 100 u/ml penicillin. Normal human peripheral mononuclear cells, K562 and SUN-1 were suspended cells. After spinning at 1,500 RPM for 5 min, supernatants were discharged and cells were resuspended and expended in fresh medium. The other tumor cell lines were adherent cells and were dispersed with 0.05% trypsin/0.01% EDTA (Irvine Scientific, CA) for expansion. Cells were seeded in T75 flasks at 2×10^6 cells/flask in culture medium supplemented with 10% fetal bovine serum and incubated overnight at 37° C. with 5% CO2. The adherent cells attached to the plate were striped with disposable cell scrapers (Fisher Scientific) after treated either with 1% iso-C15, anteiso-C15 or control solution for 1, 2, 4, 8 and 24 hours and then combined with respective float cells. Cells were then prepared for flow cytometry analysis, in situ cell death detection, DNA fragmentation and Western blot assay followed the preparation methods for each assay. Cell pellets treated for 2 and 4 hr with either iso-C15 or control were also stored at −70° C. for future studies of gene regulation.
A flow cytometer (FACScan) with Consort 30 software for gating analysis (Becton Dickinson, San Jose, Calif.) was used. The Apoptosis Detection kit (R&D Systems) was used to quantitatively determine the percentage of cells undergoing apoptosis by virtue of their ability to bind annexin V and exclude propidium iodide (PI). Cells were washed in cold PBS twice and resuspended in binding buffer. Fluorescent-labeled annexin V and PI were added to the cells. The cells undergoing apoptosis, expressing phosphotidyiserine on the outer leaflet of cell membranes, would bind annexin V. The cells in later stage of apoptosis or necrosis, with a compromised cell membrane, would allow PI to bind to the cellular DNA. The resulting cells were immediately analyzed by flow cytometer equipped with a single laser emitting excitation light at 488 nm. The annexin V and PI generated signals can be detected in signal detector FL1 and FL2, respectively. […]

[7] = CTX 30 mg/kg i.p. once a day, 8 days

## O=P1(N(CCCl)CCCl)NCCCO1 (stereo not drawn) [CP, cyclophosphamide]
[1]
  ILS % (rate of increase in life span): 22.86%
  life span: 13.06 ± 3.03 days
  mice No (>17 d): 1
  prolonged days: 2.44 ± 2.58 days

## O=P1(N(CCCl)CCCl)NCCCO1 (stereo not drawn) [CTX, Cytoxan]
Lewis mouse lung tumor; CTX 30 mg/kg i.p.
  body weight in. (initial): 21.2 g
Lewis mouse lung tumor; [7]
  TIR: 62.6%
  body weight fi. (final): 20.3 g
  tumor weight mean ± SD: 0.71 ± 0.36 g
Lewis mouse lung tumor; CTX i.p. injection, 8-day period
  viability: 70%

## CO[C@@]12[C@H](COC(N)=O)C3=C(C(=O)C(C)=C(N)C3=O)N1C[C@@H]1N[C@@H]12 [MMC, mitomycin C]
[2]; Test I
  Body wt. Fi.: 22.0
  Body wt. In.: 22.4
  Inhibition %: 71.49%
  Tumor wt. X ± SD: 0.33 ± 0.24 g
[2]; Test II
  Body wt. Fi.: 21.1/21.1
  Body wt. In.: 21.1/21.1
  Inhibition %: 73.51%
  Tumor wt. X ± SD: 0.30 ± 0.33 g

## CCC(C)CCCCCCCCCC(=O)O (stereo not drawn) [anteiso-C14, 11-methyltridecanoic acid]
[3]
  inhibition at 30 µg/mL: 72.6%

## CCC(C)CCCCCCCCCCC(=O)O (stereo not drawn) [anteiso-C15, 12-methyltetradecanoic acid]
[3]
  inhibition at 30 µg/mL: 73.1%
[4]
  morphological changes indicative of apoptosis: exhibited cell volume decrease due to shrinkage and bubbles inside the cell
[5]
  morphological changes indicative of apoptosis: chromatin condensation and cytoplasmic granularity were noted
[6]; 4 hours
  FL1/FL2 pattern (annexin V / PI), apoptosis: many cells were undergoing apoptosis
[6]; 24 hours
  FL1/FL2 pattern (annexin V / PI), apoptosis: the majority of cells had already died

## CCC(C)CCCCCCCCCCCC(=O)O (stereo not drawn) [anteiso-C16, 13-methylpentadecanoic acid]
[3]
  inhibition at 30 µg/mL: 70.7%

## CCC(C)CCCCCCCCCCCCCC(=O)O (stereo not drawn) [anteiso-C18, 15-methylheptadecanoic acid]
[3]
  inhibition at 30 µg/mL: 71.7%

## CC(C)CCCCCCCCC(=O)O [iso-C12, 10-methylundecanoic acid]
[3]
  inhibition at 30 µg/mL: 70.7%

## CC(C)CCCCCCCCCC(=O)O [iso-C13, 11-methyllauric acid]
[3]
  inhibition at 30 µg/mL: 71%

## CC(C)CCCCCCCCCCC(=O)O [iso-C14, 12-methyltridecanoic acid]
[3]
  inhibition at 30 µg/mL: 72.2%

## CC(C)CCCCCCCCCCCCC(=O)O [iso-C16, 14-methylpentadecanoic acid]
[3]
  inhibition at 30 µg/mL: 71.6%

## CC(C)CCCCCCCCCCCCCC(=O)O [iso-C17, 15-methylpalmitic acid]
[3]
  inhibition at 30 µg/mL: 70.8%

## CC(C)CCCCCCCCCCCCCCC(=O)O [iso-C18, 16-methylheptadecanoic acid]
[3]
  inhibition at 30 µg/mL: 68.4%

## CC(C)CCCCCCCCCCCCCCCC(=O)O [iso-C19, 17-methylstearic acid]
[3]
  inhibition at 30 µg/mL: 69.2%

## CC(C)CCCCCCCCCCCCCCCCC(=O)O [iso-C20, 18-methylnonadecanoic acid]
[3]
  inhibition at 30 µg/mL: 62.6%

Reference: US7070965B1, “Small molecule anticancer compounds and related production process” (priority 1998, dated 2006)
